Experimental data published in patent US11603380B2 (Centre national de la recherche scientifique, priority 2018, dated 2023).
Where two headings read alike, the source gives them in different places.

Legend:
[1] = test system: human cytomegalovirus (HCMV) (AD-169); test: microbe, parasite or virus in culture; format: cell-based; settings: read-out: EC50 HCMV (AD-169)
[2] = test system: human cytomegalovirus (HCMV) (Davis); test: microbe, parasite or virus in culture; format: cell-based; settings: read-out: EC50 HCMV (Davis)
[3] = test system: varicella-zoster virus (VZV) TK+ (OKA); test: microbe, parasite or virus in culture; format: cell-based; settings: read-out: EC50 VZV TK+ (OKA)
[4] = test system: varicella-zoster virus (VZV) TK− (07/1); test: microbe, parasite or virus in culture; format: cell-based; settings: Human alphaherpesvirus 3, HEL, read-out: EC50 VZV TK− (07/1)
[5] = test system: herpes simplex virus 1 (HSV-1) (KOS); test: microbe, parasite or virus in culture; format: cell-based; settings: read-out: EC50 HSV-1 (KOS)
[6] = test system: HSV-2 (G); test: microbe, parasite or virus in culture; format: cell-based, herpes simplex virus 2; settings: read-out: EC50 HSV-2 (G)
[7] = test system: HSV-1 (KOS ACV) TK−; test: microbe, parasite or virus in culture; format: cell-based, herpes simplex virus 1
[8] = test system: Vaccinia Virus; test: microbe, parasite or virus in culture; format: cell-based; settings: read-out: EC50 Vaccinia Virus
[9] = test system: Feline Herpes Virus; test: organism not typed; format: cell-based; settings: read-out: EC50 Feline Herpes Virus
[10] = test system: HSV-1, HSV-2, HSV-1 (TK−), VV, FHV; format: cell-based
[11] = test system: HEL cell cultures
[12] = in vitro; settings: human
[13] = test system: HEL cells; settings: read-out: Cytotoxicity CC50; concentration reducing cell growth by 50%; HCMV/VZV table
[14] = Human betaherpesvirus 5, AD169, HEL
[15] = Human alphaherpesvirus 1, read-out: EC50 HSV-1 (KOS ACV) TK−
[16] = read-out: EC50 HSV-1 (KOS ACV) TK−

Compound | EC50 [1, 14] | EC50 ([2]; Human betaherpesvirus 5, HEL) | EC50 ([3]; Human alphaherpesvirus 3, HEL) | EC50 [4] | EC50 ([5]; Human alphaherpesvirus 1, HEL) | EC50 ([6]; Human alphaherpesvirus 2, HEL) | EC50 [7, 15] | EC50 ([8]; Orthopoxvirus vaccinia, HEL) | EC50 [9] | Cytotoxicity MCC ([11]; human) | CC50 at 3 days [12] | other results
CC(=O)OCC(=CCP(=O)(OCOC(=O)C(C)(C)C)OCOC(=O)C(C)(C)C)COc1cc(N)nc(N)n1 (mixture of isomers) [Compound (4), [[(Z/E)-3-(acetoxymethyl)-4-(2,6-diaminopyrimidin-4-yl)oxy-but-2′-enyl]-(2,2-dimethylpropanoyloxymethoxy)phosphoryl]oxymethyl 2,2-dimethylpropanoate] | 8.56 µM | 4.06 µM | 0.14 µM | 0.12 µM | 0.6 µM | 1.1 µM | 0.6 µM | 2.9 µM | > 100 µM | 100 µM | 2.02 µM | activity level against HSV-1, HSV-2, HSV-1 (TK−), VV, FHV [10]: micromolar and sub-micromolar activities
CCCCCCCCCCCCCCCCOCCCOP(=O)(CC=C(COC(C)=O)COc1cc(Cl)nc(N)n1)OCOC(=O)OC(C)C (mixture of isomers) [Compound (8), [(E/Z)-2′-[(2-amino-6-chloro-pyrimidin-4-yl)oxymethyl]-4-[3-hexadecoxypropoxy(isopropoxycarbonyloxymethoxy)phosphoryl]but-2′-enyl]acetate] | – | – | – | – | – | – | – | – | > 100 µM | – | – | EC50 [1]: > 20 µM; EC50 [2]: 13.1 µM; EC50 [3]: 48.9 µM; EC50 [5]: > 100 µM; EC50 [6]: > 100 µM; EC50 [7, 16]: > 100 µM; EC50 [8]: > 100 µM; Cytotoxicity MCC [11]: 100 µM; CC50 [13]: 5.01 µM
Nc1nc2c(ncn2COCCO)c(=O)[nH]1 [Acyclovir, reference compound] | 0.4 µM | 250 µM | – | – | – | – | – | > 100 µM | – | – | – | CC50 [12]: 134 ± 10 µM; CC50 ([12]; Cytotoxicity CC50): > 100 µM
O=c1[nH]c(=O)n([C@H]2C[C@H](O)[C@@H](CO)O2)cc1/C=C/Br [Brivudine, reference compound] | 0.08 µM | 250 µM | 0.01 µM | 117 µM | – | – | – | 22 µM | – | >100 µM | – | CC50 [12]: 339 µM; CC50 ([12]; Cytotoxicity CC50): > 100 µM
CC(C)(C)C(=O)OCOP(=O)(C/C=C/COc1cc(N)nc(N)n1)OCOC(=O)C(C)(C)C [Compound (1), [[(E)-4-(2,6-diaminopyrimidin-4-yl)oxybut-2′-enyl]-(2,2-dimethylpropanoyloxymethoxy)phosphoryl]oxymethyl 2,2-dimethylpropanoate] | 44.7 µM | 44.7 µM | 2.04 µM | 2.32 µM | 13.4 µM | 13.4 µM | 13.4 µM | 32.5 µM | > 100 µM | >100 µM | 5.1 µM | activity level against HSV-1, HSV-2, HSV-1 (TK−), VV, FHV [10]: micromolar and sub-micromolar activities
CCCCCCCCCCCCCCCCOCCCOP(=O)(C/C=C/COc1cc(N)nc(N)n1)OCOC(=O)OC(C)C (stereo not shown) [Compound (2), [[(E)-4-(2,6-diaminopyrimidin-4-yl)oxybut-2′-enyl]-(3-hexadecoxypropoxy)phosphoryl]oxymethyl isopropyl carbonate] | – | – | – | – | – | – | – | – | > 100 µM | – | – | EC50 [1]: 7.08 µM; EC50 [2]: 7.26 µM; EC50 [3]: 0.17 µM; EC50 [5]: > 100 µM; EC50 [6]: > 100 µM; EC50 [7, 16]: > 100 µM; EC50 [8]: > 100 µM; Cytotoxicity MCC [11]: >100 µM; CC50 [13]: 14.5 µM
CC(C)OC(=O)OCOP(=O)(C/C=C/COc1cc(N)nc(N)n1)OCOC(=O)OC(C)C [Compound (3), [[(E)-4-(2,6-diaminopyrimidin-4-yl)oxybut-2′-enyl]-(isopropoxycarbonyloxymethoxy)phosphoryl]oxymethyl isopropyl carbonate] | 44.7 µM | 36.6 µM | 0.86 µM | 1.25 µM | 3.75 µM | 1.85 µM | 5.75 µM | > 100 µM | > 100 µM | >100 µM | 99 µM | activity level against HSV-1, HSV-2, HSV-1 (TK−), VV, FHV [10]: micromolar and sub-micromolar activities
CC(=O)OC/C(=C\CP(=O)(OCOC(=O)OC(C)C)OCOC(=O)OC(C)C)COc1cc(N)nc(N)n1 [Compound (6), [(Z)-4-[bis(isopropoxycarbonyloxymethoxy)phosphoryl]-2-[(2,6-diaminopyrimidin-4-yl)oxymethyl]but-2-enyl]acetate] | > 20 µM | 49.7 µM | 0.089 µM | 0.22 µM | 0.6 ± 0.2 µM | 0.35 ± 0.05 µM | 0.4 µM | 4.1 ± 2.4 µM | > 100 µM | >100 µM | 15.4 µM | –
CC(C)(C)C(=O)OCOP(=O)(/C=C/COc1cc(N)nc(N)n1)OCOC(=O)C(C)(C)C [Compound (9), [[(E)-3-(2,6-diaminopyrimidin-4-yl)oxyprop-1-enyl]-(2,2-dimethyl-propanoyloxymethoxy)phosphoryl]oxymethyl 2,2-dimethylpropanoate] | > 100 µM | > 100 µM | 76.5 µM | > 100 µM | > 100 µM | > 100 µM | > 100 µM | > 100 µM | > 100 µM | >100 µM | – | –
CC(C)(C)C(=O)OCOP(=O)(CC/C=C/COc1cc(N)nc(N)n1)OCOC(=O)C(C)(C)C [Compound (10), [[(E)-5-(2,6-diaminopyrimidin-4-yl)oxypent-3-enyl]-(2,2-dimethyl-propanoyloxymethoxy)phosphoryl]oxymethyl 2,2-dimethylpropanoate] | > 100 µM | > 100 µM | 34.2 µM | 24.5 µM | > 100 µM | > 100 µM | > 100 µM | > 100 µM | > 100 µM | 100 µM | – | –
C/C(=C\CP(=O)(OCOC(=O)C(C)(C)C)OCOC(=O)C(C)(C)C)COc1cc(N)nc(N)n1 [Compound (11), [[(E)-4-(2,6-diaminopyrimidin-4-yl)oxy-3-methyl-but-2-enyl]-(2,2-dimethyl-propanoyloxymethoxy)phosphoryl]oxymethyl 2,2-dimethylpropanoate] | > 100 µM | > 100 µM | 51.5 µM | 49.3 µM | > 100 µM | > 100 µM | 51.5 µM | 49.3 µM | > 100 µM | >100 µM | – | –
CC(C)(C)C(=O)OCOP(=O)(CCCCOc1cc(N)nc(N)n1)OCOC(=O)C(C)(C)C [Compound (12)] | 44.7 µM | > 20 µM | 11.3 µM | 11 µM | 39.5 µM | 39.5 µM | 42 µM | > 100 µM | > 100 µM | >100 µM | 54.9 µM | –
Nc1nc(O)c2ncn(COC(CO)CO)c2n1 [Ganciclovir, reference compound] | – | – | – | – | – | 0.06 µM | – | > 100 µM | 1.4 µM | >100 µM | – | CC50 ([12]; Cytotoxicity CC50): > 100 µM
[(E/Z)-2-[[2-[bis(tert-butoxycarbonyl)amino]-6-methoxy-pyrimidin-4-yl]oxymethyl]-4-[3-hexadecoxypropoxy(isopropoxycarbonyloxymethoxy)phosphoryl]but-2′-enyl]acetate [Compound (7)] | – | – | – | – | – | – | – | – | > 100 µM | – | – | EC50 [1]: > 20 µM; EC50 [2]: 8.94 µM; EC50 [3]: > 20 µM; EC50 [5]: > 100 µM; EC50 [6]: > 100 µM; EC50 [7, 16]: > 100 µM; EC50 [8]: > 100 µM; Cytotoxicity MCC [11]: 100 µM; CC50 [13]: 1.29 µM
